Columns and labels:
Test in all cases: relative viability (nuclei count vs DMSO), 5 days (fraction); higher = more cells survive
NCI-H1395 = system: NCI-H1395
How it was run: (§1)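 Lung cancer cell lines, seeded in 1536-well plates, were treated the following day by pin tool with a single drug or with five library-drug doses (not always all listed) in √10 steps on top of a fixed anchor-drug dose. Cells were fixed and nuclei stained in one step after 5 days, and nuclei were counted. Relative viability is the nuclei count for treated wells divided by that for vehicle wells, reported as medians of duplicate plates.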

NCI-H3122 = system: NCI-H3122
How it was run: as §1

NCI-H647 = system: NCI-H647
How it was run: as §1

201T = system: 201T
How it was run: as §1

NCI-H441 = system: NCI-H441
How it was run: as §1

NCI-H596 = system: NCI-H596
How it was run: as §1

LCLC-103H = system: LCLC-103H
How it was run: as §1

BEN = system: BEN
How it was run: as §1

NCI-H522 = system: NCI-H522
How it was run: as §1

NCI-H838 = system: NCI-H838
How it was run: as §1

NCI-H2023 = system: NCI-H2023
How it was run: as §1

CC(=O)O[C@@]12CO[C@@H]1C[C@H](O)[C@@]1(C)C(=O)[C@H](O)C3=C(C)[C@@H](OC(=O)[C@H](O)[C@@H](NC(=O)OC(C)(C)C)c4ccccc4)C[C@@](O)([C@@H](OC(=O)c4ccccc4)[C@H]21)C3(C)C [Docetaxel] + COc1cccc2cc(-c3nc([C@H]4CC[C@H](C(=O)O)CC4)n4ncnc(N)c34)[nH]c12 [OSI-027] (partner 0.5 µM)
relative viability (NCI-H1395; first compound 0.0002 µM): 0.609
relative viability (NCI-H1395; first compound 0.000632 µM): 0.657
relative viability (NCI-H1395; first compound 0.002 µM): 0.538
relative viability (NCI-H1395; first compound 0.006325 µM): 0.373
relative viability (NCI-H1395; first compound 0.02 µM): 0.272
relative viability (NCI-H3122; first compound 0.0002 µM): 0.932
relative viability (NCI-H3122; first compound 0.000632 µM): 0.861
relative viability (NCI-H3122; first compound 0.002 µM): 0.227
relative viability (NCI-H3122; first compound 0.006325 µM): 0.168
relative viability (NCI-H3122; first compound 0.02 µM): 0.118
relative viability (NCI-H647; first compound 0.0002 µM): 0.524
relative viability (NCI-H647; first compound 0.000632 µM): 0.432
relative viability (NCI-H647; first compound 0.002 µM): 0.229
relative viability (NCI-H647; first compound 0.006325 µM): 0.0929
relative viability (NCI-H647; first compound 0.02 µM): 0.0717
relative viability (201T; first compound 0.0002 µM): 0.528
relative viability (201T; first compound 0.000632 µM): 0.442
relative viability (201T; first compound 0.002 µM): 0.258
relative viability (201T; first compound 0.006325 µM): 0.132
relative viability (201T; first compound 0.02 µM): 0.0963
relative viability (NCI-H441; first compound 0.0002 µM): 0.654
relative viability (NCI-H441; first compound 0.000632 µM): 0.364
relative viability (NCI-H441; first compound 0.002 µM): 0.33
relative viability (NCI-H441; first compound 0.006325 µM): 0.288
relative viability (NCI-H441; first compound 0.02 µM): 0.235
relative viability (NCI-H596; first compound 0.0002 µM): 0.805
relative viability (NCI-H596; first compound 0.000632 µM): 0.767
relative viability (NCI-H596; first compound 0.002 µM): 0.505
relative viability (NCI-H596; first compound 0.006325 µM): 0.372
relative viability (NCI-H596; first compound 0.02 µM): 0.241
relative viability (LCLC-103H; first compound 0.0002 µM): 0.394
relative viability (LCLC-103H; first compound 0.000632 µM): 0.528
relative viability (LCLC-103H; first compound 0.002 µM): 0.343
relative viability (LCLC-103H; first compound 0.006325 µM): 0.414
relative viability (LCLC-103H; first compound 0.02 µM): 0.264
relative viability (BEN; first compound 0.0002 µM): 0.283
relative viability (BEN; first compound 0.000632 µM): 0.285
relative viability (BEN; first compound 0.002 µM): 0.241
relative viability (BEN; first compound 0.006325 µM): 0.181
relative viability (BEN; first compound 0.02 µM): 0.165
relative viability (NCI-H522; first compound 0.0002 µM): 0.666
relative viability (NCI-H522; first compound 0.000632 µM): 0.657
relative viability (NCI-H522; first compound 0.002 µM): 0.541
relative viability (NCI-H522; first compound 0.006325 µM): 0.496
relative viability (NCI-H522; first compound 0.02 µM): 0.426
relative viability (NCI-H838; first compound 0.0002 µM): 0.331
relative viability (NCI-H838; first compound 0.000632 µM): 0.422
relative viability (NCI-H838; first compound 0.002 µM): 0.259
relative viability (NCI-H838; first compound 0.006325 µM): 0.16
relative viability (NCI-H838; first compound 0.02 µM): 0.134
relative viability (NCI-H2023; first compound 0.0002 µM): 0.341
relative viability (NCI-H2023; first compound 0.000632 µM): 0.339
relative viability (NCI-H2023; first compound 0.002 µM): 0.131
relative viability (NCI-H2023; first compound 0.006325 µM): 0.0963
relative viability (NCI-H2023; first compound 0.02 µM): 0.0554

— the supplement of paper PMC10307832
